± gives the expanded uncertainty stated by the source.
Columns and labels:
[1] = Liquid; for mass density: Vibrating tube method
[2] = refractive index (Na D-line) (dimensionless); mn = molality of the nth substance listed, in mol/kg; settings: 298.15 K, 101 kPa, Liquid, Standard Abbe refractometry
[3] = mn = molality of the nth substance listed, in mol/kg; settings: 101 kPa, Liquid; for viscosity: Capillary tube (Ostwald / Ubbelohde) method; for mass density: Vibrating tube method

CCCCCCn1cc[n+](C)c1.[Br-] [3-hexyl-1-methyl-1H-imidazolium bromide]
Settings | mass density [kg/m3]
[1], 298.15 K, 101.33 kPa | 1222.1 ± 0.5

CCCCCCn1cc[n+](C)c1.[Br-] [3-hexyl-1-methyl-1H-imidazolium bromide] + CN(C)C=O
[2]
Settings | refractive index
m1 = 0.0233 | 1.4303 ± 0.0005
m1 = 0.0435 | 1.4306 ± 0.0005
m1 = 0.0658 | 1.4311 ± 0.0005
m1 = 0.0824 | 1.4316 ± 0.0005
m1 = 0.1049 | 1.432 ± 0.0005
m1 = 0.1228 | 1.4325 ± 0.0005
m1 = 0.1428 | 1.433 ± 0.0005
m1 = 0.1583 | 1.4336 ± 0.0005
m1 = 0.1869 | 1.4344 ± 0.0005
m1 = 0.2051 | 1.4347 ± 0.0005

[3]
Settings | mass density, 298.15 K [kg/m3] | mass density, 303.15 K [kg/m3] | mass density, 308.15 K [kg/m3] | mass density, 313.15 K [kg/m3] | viscosity, 298.15 K [mPa·s]
m1 = 2.17e-05 | – | – | – | – | 0.897 ± 0.015
m1 = 4.17e-05 | – | – | – | – | 0.913 ± 0.015
m1 = 6.26e-05 | – | – | – | – | 0.929 ± 0.015
m1 = 7.78e-05 | – | – | – | – | 0.938 ± 0.015
m1 = 9.98e-05 | – | – | – | – | 0.952 ± 0.015
m1 = 0.0001171 | – | – | – | – | 0.969 ± 0.015
m1 = 0.0001363 | – | – | – | – | 0.985 ± 0.016
m1 = 0.0001507 | – | – | – | – | 0.997 ± 0.016
m1 = 0.0001787 | – | – | – | – | 1.014 ± 0.016
m1 = 0.0001961 | – | – | – | – | 1.022 ± 0.016
m1 = 0.0233 | 945.6 ± 0.82 | 942.35 ± 0.82 | 937.3 ± 0.81 | 932.21 ± 0.81 | –
m1 = 0.0435 | 946.89 ± 0.83 | 943.65 ± 0.82 | 938.59 ± 0.82 | 933.56 ± 0.81 | –
m1 = 0.0658 | 948.29 ± 0.83 | 945.07 ± 0.82 | 939.99 ± 0.82 | 935.02 ± 0.81 | –
m1 = 0.0824 | 949.31 ± 0.83 | 946.1 ± 0.82 | 941.01 ± 0.82 | 936.08 ± 0.81 | –
m1 = 0.1049 | 950.67 ± 0.83 | 947.48 ± 0.83 | 942.38 ± 0.82 | 937.52 ± 0.81 | –
m1 = 0.1228 | 951.73 ± 0.83 | 948.58 ± 0.83 | 943.44 ± 0.82 | 938.65 ± 0.82 | –
m1 = 0.1428 | 952.91 ± 0.83 | 949.77 ± 0.83 | 944.62 ± 0.82 | 939.88 ± 0.82 | –
m1 = 0.1583 | 953.83 ± 0.83 | 950.67 ± 0.83 | 945.53 ± 0.82 | 940.81 ± 0.82 | –
m1 = 0.1869 | 955.45 ± 0.84 | 952.33 ± 0.83 | 947.16 ± 0.83 | 942.51 ± 0.82 | –
m1 = 0.2051 | 956.47 ± 0.84 | 953.36 ± 0.83 | 948.17 ± 0.83 | 943.57 ± 0.82 | –

C(=NCCN=Cc1ccccn1)c1ccccn1 [N,N'-bis(2-pyridinylmethylene)-1,2-ethanediamine] + CN(C)C=O
[3]
Settings | mass density, 298.15 K [kg/m3] | mass density, 303.15 K [kg/m3] | mass density, 308.15 K [kg/m3] | mass density, 313.15 K [kg/m3] | viscosity, 298.15 K [mPa·s]
m1 = 0.0402 | 945.46 ± 0.82 | 941.5 ± 0.82 | 936.79 ± 0.81 | 931.89 ± 0.81 | 0.878 ± 0.015
m1 = 0.0764 | 946.76 ± 0.83 | 942.72 ± 0.82 | 937.92 ± 0.81 | 933.39 ± 0.81 | 0.893 ± 0.015
m1 = 0.1208 | 948.07 ± 0.83 | 943.95 ± 0.82 | 939.19 ± 0.82 | 934.92 ± 0.81 | 0.909 ± 0.015
m1 = 0.1644 | 949.29 ± 0.83 | 944.72 ± 0.82 | 940.14 ± 0.82 | 936.16 ± 0.81 | 0.926 ± 0.015

CN(C)C=O [dimethylformamide]
Settings | viscosity [mPa·s]
[1], 298.15 K, 101 kPa, Capillary tube (Ostwald / Ubbelohde) method | 0.861 ± 0.014

[1], 101 kPa
Settings | mass density [kg/m3]
298.15 K | 944.09 ± 0.82
303.15 K | 940.82 ± 0.82
308.15 K | 935.79 ± 0.81
313.15 K | 930.63 ± 0.81

Source: the NIST ThermoML archive (doi:10.1016/j.tca.2011.10.009)
